Results from patent US10568879B2 (GALAPAGOS NV, priority 2015, dated 2020).

Biological target: T1, GPR84 (Homo sapiens, UniProt Q9NQS5)
T1 construct: expressed in transfected cells
Test: GPR84 [35S]GTPγS binding assay
Assay type: biochemical
Conditions: 3,3′-diindolylmethane at EC80; membranes from stable cell line over expressing GPR84
Experimental: The following assay can be used for determination of GPR84 activation. The [^35S]GTPγS binding assay measures the level of G protein activation following agonist occupation of a GPCR, by determining the binding of the non-hydrolysable analog [^35S]GTPγS to Gα subunits.
The assay is performed in a 96-well plate where the following reagents are added. First 50 μL compound is added into the assay plate, followed by addition of 20 μL 3,3′-diindolylmethane at EC80 concentration (concentration which gives 80% of the activity of GPR84). Then, 30 μL of a mixture consisting of membranes-GTPγS-SpA beads is added [mixture consists of 20 μg/well membranes derived from stable cell line over expressing GPR84 (membranes are pre-incubated with 0.1 μM GDP for 15 min at 4° C.), 0.1 nM [^35S]GTPγS (Perkin Elmer, NEG030) and 0.5 mg/well PVT-WGA SpA beads (Perkin Elmer, RPNQ0001)]. All components are diluted in assay buffer containing 20 mM Tris pH 7.5; 5 mM MgCl2; 250 mM NaCl; 0.05% BSA; 75 μg/mL saponin. After an incubation of 90 min at room temperature, 20 μL CsCl2 0.8 M (MP Biomedicals, 02150589) is added, followed by centrifugation at 2000 rpm during 20 min. Plates are read on a topcount reader (perkin elmer) immediately after centrifugation (readout time, 1 min/well).

T1 sequence (Q9NQS5 whole entry): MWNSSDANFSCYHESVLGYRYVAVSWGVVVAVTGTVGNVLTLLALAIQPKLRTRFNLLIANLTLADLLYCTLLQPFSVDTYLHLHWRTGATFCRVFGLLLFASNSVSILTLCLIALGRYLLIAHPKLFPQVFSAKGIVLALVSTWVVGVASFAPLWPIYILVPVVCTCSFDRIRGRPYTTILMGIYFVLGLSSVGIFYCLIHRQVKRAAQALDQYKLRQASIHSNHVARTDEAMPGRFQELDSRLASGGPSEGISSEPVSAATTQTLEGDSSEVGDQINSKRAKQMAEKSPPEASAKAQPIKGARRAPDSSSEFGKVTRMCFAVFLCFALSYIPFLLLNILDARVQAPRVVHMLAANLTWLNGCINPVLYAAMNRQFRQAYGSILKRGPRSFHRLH

Row | IC50 [nM] | SMILES
1 | 100 to 500 | COC(=O)C1CN(c2ccc3c(c2)CCn2c(OC[C@@H]4COCCO4)cc(=O)c(C)c2-3)C1 [Compound 97]
2 | 100 to 500 | Cc1c2n(c(OC[C@@H]3COCCO3)cc1=O)CCc1cc(-c3cccnc3)ccc1-2 [Compound 98, 4-[[(2S)-1,4-dioxan-2-yl]methoxy]-1-methyl-9-(3-pyridyl)-6,7-dihydrobenzo[a]quinolizin-2-one]
3 | 0.01 to 100 | Cc1c2n(c(OC[C@@H]3COCCO3)cc1=O)CCc1cc(-c3cccc(F)c3)ccc1-2 [Compound 99, 4-[[(2S)-1,4-dioxan-2-yl]methoxy]-9-(3-fluorophenyl)-1-methyl-6,7-dihydrobenzo[a]quinolizin-2-one]
4 | 0.01 to 100 | Cc1c2n(c(OC[C@@H]3COCCO3)cc1=O)CCc1cc(-c3ccncc3)ccc1-2 [Compound 100, 4-[[(2S)-1,4-dioxan-2-yl]methoxy]-1-methyl-9-(4-pyridyl)-6,7-dihydrobenzo[a]quinolizin-2-one]
5 | 0.01 to 100 | Cc1c2n(c(OC[C@@H]3COCCO3)cc1=O)CCc1cc(-c3ccccn3)ccc1-2 [Compound 101, 4-[[(2S)-1,4-dioxan-2-yl]methoxy]-1-methyl-9-(2-pyridyl)-6,7-dihydrobenzo[a]quinolizin-2-one]
6 | 0.01 to 100 | Cc1cccnc1-c1ccc2c(c1)CCn1c(OC[C@@H]3COCCO3)cc(=O)c(C)c1-2 [Compound 102, 4-[[(2S)-1,4-dioxan-2-yl]methoxy]-1-methyl-9-(3-methyl-2-pyridyl)-6,7-dihydrobenzo[a]quinolizin-2-one]
7 | 0.01 to 100 | Cc1ccnc(-c2ccc3c(c2)CCn2c(OC[C@@H]4COCCO4)cc(=O)c(C)c2-3)c1 [Compound 103, 4-[[(2S)-1,4-dioxan-2-yl]methoxy]-1-methyl-9-(4-methyl-2-pyridyl)-6,7-dihydrobenzo[a]quinolizin-2-one]
8 | 0.01 to 100 | Cc1c2n(c(OC[C@@H]3COCCO3)cc1=O)CCc1cc(OC3CN(C(=O)OC(C)(C)C)C3)ccc1-2 [Compound 104, tert-butyl 3-[[4-[[(2S)-1,4-dioxan-2-yl]methoxy]-1-methyl-2-oxo-6,7-dihydrobenzo[a]quinolizin-9-yl]oxy]azetidine-1-carboxylate]
9 | 0.01 to 100 | [2H]C(Oc1ccc2c(c1)CCn1c(OC[C@@H]3COCCO3)c([2H])c(=O)c(C)c1-2)=C(F)F [Compound 105, 3-deuterio-9-(1-deuterio-2,2-difluoro-vinyloxy)-4-[[(2S)-1,4-dioxan-2-yl]methoxy]-1-methyl-6,7-dihydrobenzo[a]quinolizin-2-one]
10 | 0.01 to 100 | [2H]C([2H])(Oc1ccc2c(c1)CCn1c(OC[C@@H]3COCCO3)cc(=O)c(C)c1-2)C(F)(F)F [Compound 106, 9-(1,1-dideuterio-2,2,2-trifluoro-ethoxy)-4-[[(2S)-1,4-dioxan-2-yl]methoxy]-1-methyl-6,7-dihydrobenzo[a]quinolizin-2-one]
11 | 100 to 500 | Cc1c2n(c(OCC3CCO3)cc1=O)CCc1cc(OCc3ccccc3)ccc1-2 (stereo not shown) [Compound 107, 9-benzyloxy-1-methyl-4-(oxetan-2-ylmethoxy)-6,7-dihydrobenzo[a]quinolizin-2-one]
12 | 0.01 to 100 | Cc1c2n(c(OC[C@@H]3CCCO3)cc1=O)CCc1cc(OCc3ccccc3)ccc1-2 [Compound 108, 9-benzyloxy-1-methyl-4-[[(2S)-tetrahydrofuran-2-yl]methoxy]-6,7-dihydrobenzo[a]quinolizin-2-one]
13 | 0.01 to 100 | Cc1c2n(c(OCC3CCCCO3)cc1=O)CCc1cc(OCc3ccccc3)ccc1-2 (stereo not shown) [Compound 109, 9-benzyloxy-1-methyl-4-(tetrahydropyran-2-ylmethoxy)-6,7-dihydrobenzo[a]quinolizin-2-one]
14 | 0.01 to 100 | COC1CN(c2ccc3c(c2)CCn2c(OC[C@@H]4COCCO4)cc(=O)c(C)c2-3)C1 [Compound 110, 4-[[(2S)-1,4-dioxan-2-yl]methoxy]-9-(3-methoxyazetidin-1-yl)-1-methyl-6,7-dihydrobenzo[a]quinolizin-2-one]
15 | 0.01 to 100 | COC1CCN(c2ccc3c(c2)CCn2c(OC[C@@H]4COCCO4)cc(=O)c(C)c2-3)CC1 [Compound 111, 4-[[(2S)-1,4-dioxan-2-yl]methoxy]-9-(4-methoxy-1-piperidyl)-1-methyl-6,7-dihydrobenzo[a]quinolizin-2-one]
16 | 0.01 to 100 | Cc1c2n(c(OC[C@@H]3COCCO3)cc1=O)CCc1cc(N3CCC(C(=O)N4CCCCC4)CC3)ccc1-2 [Compound 112, 4-[[(2S)-1,4-dioxan-2-yl]methoxy]-1-methyl-9-[4-(piperidine-1-carbonyl)-1-piperidyl]-6,7-dihydrobenzo[a]quinolizin-2-one]

Row | IC50 [nM] | SMILES
17 | 0.01 to 100 | Cc1c2n(c(OC[C@@H]3COCCO3)cc1=O)CCc1cc(N3CCC(c4ccccc4)CC3)ccc1-2 [Compound 113, 4-[[(2S)-1,4-dioxan-2-yl]methoxy]-1-methyl-9-(4-phenyl-1-piperidyl)-6,7-dihydrobenzo[a]quinolizin-2-one]
18 | 0.01 to 100 | Cc1c2n(c(OC[C@@H]3COCCO3)cc1=O)CCc1cc(N3CCCCC3)ccc1-2 [Compound 115, 4-[[(2S)-1,4-dioxan-2-yl]methoxy]-1-methyl-9-(1-piperidyl)-6,7-dihydrobenzo[a]quinolizin-2-one]
19 | 0.01 to 100 | Cc1c2n(c(OC[C@@H]3COCCO3)cc1=O)CCc1cc(N3CCCC(C)C3)ccc1-2 (stereo partly drawn) [Compound 116, 4-[[(2S)-1,4-dioxan-2-yl]methoxy]-1-methyl-9-(3-methyl-1-piperidyl)-6,7-dihydrobenzo[a]quinolizin-2-one]
20 | 0.01 to 100 | Cc1c2n(c(OC[C@@H]3COCCO3)cc1=O)CCc1cc(N3CCC(c4ccc(F)cc4)CC3)ccc1-2 [Compound 117, 4-[[(2S)-1,4-dioxan-2-yl]methoxy]-9-[4-(4-fluorophenyl)-1-piperidyl]-1-methyl-6,7-dihydrobenzo[a]quinolizin-2-one]
21 | 100 to 500 | Cc1c2n(c(OC[C@@H]3COCCO3)cc1=O)CCc1cc(OC3CN(C(=O)C4CC4)C3)ccc1-2 [Compound 118, 9-[1-(cyclopropanecarbonyl)azetidin-3-yl]oxy-4-[[(2S)-1,4-dioxan-2-yl]methoxy]-1-methyl-6,7-dihydrobenzo[a]quinolizin-2-one]
22 | 100 to 500 | Cc1c2n(c(OC[C@@H]3COCCO3)cc1=O)CCc1cc(OC3CN(C(=O)C(F)(F)F)C3)ccc1-2 [Compound 119, 4-[[(2)S-1,4-dioxan-2-yl]methoxy]-1-methyl-9-[1-(2,2,2-trifluoroacetyl)azetidin-3-yl]oxy-6,7-dihydrobenzo[a]quinolizin-2-one]
23 | 0.01 to 100 | CCOC(=O)N1CC(Oc2ccc3c(c2)CCn2c(OC[C@@H]4COCCO4)cc(=O)c(C)c2-3)C1 [Compound 120, ethyl 3-[[4-[[(2S)-1,4-dioxan-2-yl]methoxy]-1-methyl-2-oxo-6,7-dihydrobenzo[a]quinolizin-9-yl]oxy]azetidine-1-carboxylate]
24 | 0.01 to 100 | Cc1c2n(c(OC[C@@H]3COCCO3)cc1=O)CCc1cc(N3CCC(Oc4cccnc4)CC3)ccc1-2 [Compound 121, 4-[[(2S)-1,4-dioxan-2-yl]methoxy]-1-methyl-9-[4-(3-pyridyloxy)-1-piperidyl]-6,7-dihydrobenzo[a]quinolizin-2-one]
25 | 0.01 to 100 | Cc1c2n(c(OC[C@@H]3COCCO3)cc1=O)CCc1cc(N3CCC(C#N)CC3)ccc1-2 [Compound 122, 1-[4-[[(2)S-1,4-dioxan-2-yl]methoxy]-1-methyl-2-oxo-6,7-dihydrobenzo[a]quinolizin-9-yl]piperidine-4-carbonitrile]
26 | 0.01 to 100 | Cc1c2n(c(OC[C@@H]3COCCO3)cc1=O)CCc1cc(N3CCCC(F)(F)C3)ccc1-2 [Compound 123, 9-(3,3-difluoro-1-piperidyl)-4-[[(2S)-1,4-dioxan-2-yl]methoxy]-1-methyl-6,7-dihydrobenzo[a]quinolizin-2-one]
27 | 0.01 to 100 | Cc1c2n(c(OC[C@@H]3COCCO3)cc1=O)CCc1cc(C(C)C)ccc1-2 [Compound 124, 4-[[(2S)-1,4-dioxan-2-yl]methoxy]-9-isopropyl-1-methyl-6,7-dihydrobenzo[a]quinolizin-2-one]
28 | 0.01 to 100 | [2H]c1c(OC[C@@H]2COCCO2)n2c(c(C)c1=O)-c1ccc(OCC(F)(F)F)cc1CC2 [Compound 125, 3-deuterio-4-[[(2S)-1,4-dioxan-2-yl]methoxy]-1-methyl-9-(2,2,2-trifluoroethoxy)-6,7-dihydrobenzo[a]quinolizin-2-one]
29 | 0.01 to 100 | [2H]c1c(OC[C@@H]2COCCO2)n2c(c(C)c1=O)-c1ccc(OC([2H])([2H])C([2H])([2H])F)cc1CC2 [Compound 126, 3-deuterio-4-[[(2S)-1,4-dioxan-2-yl]methoxy]-1-methyl-9-(1,1,2,2-tetradeuterio-2-fluoro-ethoxy)-6,7-dihydrobenzo[a]quinolizin-2-one]
30 | 0.01 to 100 | Cc1c2n(c(OC[C@@H]3COCCO3)cc1=O)CCc1cc(OC3CCN(C(=O)OC(C)(C)C)C3)ccc1-2 (stereo partly drawn) [Compound 127, tert-butyl 3-[[4-[[(2S)-1,4-dioxan-2-yl]methoxy]-1-methyl-2-oxo-6,7-dihydrobenzo[a]quinolizin-9-yl]oxy]pyrrolidine-1-carboxylate]
31 | 0.01 to 100 | Cc1c2n(c(OC[C@@H]3COCCO3)cc1=O)CCc1cc(OC3CCN(C(=O)OC(C)(C)C)CC3)ccc1-2 [Compound 128, tert-butyl 4-[[4-[[(2S)-1,4-dioxan-2-yl]methoxy]-1-methyl-2-oxo-6,7-dihydrobenzo[a]quinolizin-9-yl]oxy]piperidine-1-carboxylate]
